Patent US7601365B2, “Synergetic effects of HGF and antibacterial treatment” (Damavand Wound, AB, priority 2000, dated 2009)
Several values for one entry are separate records, joined by “and”; a condition that tells them apart may be missing. Identical values can stand only once. Marks after values point to notes of the source that are not given here.

Tests used:
[1] = tested on: spontaneous fungal infections and ulcers; assay: Mice with spontaneous fungal infections and ulcers, Gentiana violet with or without rhHGF; type: in vivo; conditions: local Gentiana violet once; the HGF mouse also rhHGF 10 ng subcutaneously
Experimental: Two mice (23-25 g) with spontaneous fungal infections and ulcers on their backs were shaved and treated locally with Gentiana violet once. One of them was simultaneously treated with hepatocyte growth factor (rhHGF) 10 ng subcutaneously. The hair growth was fine as in the other places of body, in the mouse that received HGF and fungicidal treatment. […] This example confirms the morphogenic effects of HGF in recovering after treated infectious injuries (see FIG. 7).

CCL-53.1 = assay: Restitution of scraped confluent monolayer; type: cell-based
Experimental: The confluent monolayer of CCL-53.1 was scraped off, forming long wounds. The area not covered by cells finally disappeared, and restitution (in control medium with 15% horse serum and 2.5 % FBS) was completed at 72 h. The addition of HGF together with the addition of antibiotic agent (streptomycin and penicillin) to the culture medium improved the restitution of the damaged area more rapidly than the control medium (10 times at 24 h) as well as to a medium including HGF without added antibiotic agents.

human skin fibroblasts = conditions: more than 1.0 ng/ml of HGF added to cultures media; cited from earlier work
[2] = tested on: normal hairless skin in mice; assay: Local rhHGF on shaved normal hairless skin in mice, hair growth; type: in vivo
Experimental: Eighteen black mice (14-16 weeks old and 21-29 g weight) were shaved on their back, causing two 1×1 cm patches on the right and left side. They were then divided into 3 groups. Group I (n=6, females), Group 2 (n=6 males) and Group 3 (n=6, 3 males and 3 females). Group 1 were treated locally on the right side by 0.70 μg/kg (12-18 ng/cm^2 hairless skin) recombinant human hepatocyte growth factor (rhHGF) daily in 10 days. In order to prepare HGF preparations, recombinant human HGF (rhHGF) was provided commercially from R&D systems Inc., Minneapolis, USA. Group 2 (n=6 males) received 0.35 μg/kg/day (5-10 ng/cm^2 hairless skin) on the right side in 10 days. Group 3, non-treated, served as the control group. […] Although some significant differences were not obviously seen in the hair growth under treatment we were surprised to see that the animals in Group 1 did show a full double-sided hair growth in 5 animals 2 days after the treatment was ended (day 12). The same process in Group 2 and group 3 did take much a longer time (day 20 and day 21, respectively).

chronic leg ulcers [3] = type: in vivo, human
Experimental: HGF in gel form was applied locally once daily for seven days in 15 of 19 chronic leg ulcers in eleven elderly patients in a pilot study. All patients had previously been treated with conventional methods and their leg ulcers had been in a rather stable condition for between one and fourteen years. Any signs of allergy, discomfort or pain were reported daily.
(§1) Micro-circulation perfusion in ulcers compared to the intact contiguous skin was determined at the beginning, after one week and after three months (in 7 patients) and ulcer size and characteristics were also documented.
In contrast to the patients with unfavourable healing (non-responders) the healing process in the responders began during treatment and continued afterwards. There was a statistically significant correlation (r=0.94, p<0.002) between enhanced micro-circulation and ulcer area reduction in the treated ulcers. Simultaneously antibacterial treatment in the ulcers with signs of infection enhanced the therapy results considerably. […] Micro-circulatory perfusion, which might reflect the angiogenic effect of HGF, was positively correlated to ulcer area reduction. Local treatment by HGF seems to have positive effect on nearby, not locally treated, ulcers indicating systemic effects. […] HGF and representative antibacterial treatment have synergetic effects in treatment of chronic leg ulcers.

chronic leg ulcers [4] = assay: Micro-circulatory perfusion in ulcers by laser Doppler (LDPI); type: in vivo, human
Experimental: The micro-circulation within the ulcers was measured using LDPI. The LDPI system (PIMLO, Lisca Development AB, Sweden) utilises the Doppler principle by freely impinging coherent laser light onto the tissue and processing the backscattered, Doppler broadened, light to estimate the tissue perfusion without touching the skin. The perfusion estimate is proportional to the product of the mean velocity and the concentration of the moving blood cells.
as §1

[5] = contiguous non-treated ulcer in a locally treated patient, up to three months

CN(C)c1ccc(C(=C2C=CC(=[N+](C)C)C=C2)c2ccc(N(C)C)cc2)cc1.[Cl-] [Gentiana violet, reference compound]
Quality of hair growth [1]: rough and irregular

HGF: recombinant human HGF (rhHGF) provided commercially from R&D systems Inc., Minneapolis, USA
Restitution of the damaged area relative to control medium (CCL-53.1; HGF together with streptomycin and penicillin in the culture medium, at 24 h): 10 times | HGF concentration at which the effect is detectable (CCL-53.1; dose-dependent effect): ≥ 5 ng/mL | DNA synthesis (human skin fibroblasts): doubled | Quality of hair growth [1]: fine | Signs of non-tolerance or diseases under or after treatment ([2]; 0.70 or 0.35 μg/kg/day locally, 10 days): None of the treated animals did show any sign of non-tolerance or diseases | Day of full double-sided hair growth ([2]; Group 1: 0.70 μg/kg locally daily in 10 days, in 5 animals): 12 days | Day of full double-sided hair growth ([2]; Group 2: 0.35 μg/kg/day locally in 10 days): 20 days | Local dose that accelerates hair growth ([2]; normal hairless skin in mice): not less than 0.7 μg/kg | Heal % (T), median (chronic leg ulcers [3]; 11 patients): 84% | Heal % (NT), first listed non-treated ulcer (chronic leg ulcers [3]; [5]): 100/100% and 100% | Heal % (NT), second listed non-treated ulcer (chronic leg ulcers [3]; [5]): 100/100% and 92% | Signs of allergy or malignancy (chronic leg ulcers [3]; human, in vivo): No signs of allergy or malignancy were observed | Patients with complete or partial healing (chronic leg ulcers [3]; local HGF treatment, ulcers incurable for up to fourteen years): 8/11 | Cases with complete cure of ulcers (chronic leg ulcers [3]; local HGF with appropriate oral antibiotics at the same time): at least 4 cases | Heal % (NT), mean, first listed ulcer (chronic leg ulcers [3]; non-treated ulcers): 100% | Heal % (NT), mean, second listed ulcer (chronic leg ulcers [3]; non-treated ulcers): 96% | Heal % (NT), median, first listed ulcer (chronic leg ulcers [3]; non-treated ulcers): 100% | Heal % (NT), median, second listed ulcer (chronic leg ulcers [3]; non-treated ulcers): 96% | Course of ulcer after superinfection with resistant bacteria (chronic leg ulcers [3]; one patient with venous insufficiency, no appropriate antibiotics (penicillin allergy)): the ulcer increased dramatically in size | Heal % (T), the two ulcers of patient 7 with different healing (chronic leg ulcers [3]; patient 7): (59-88%)♦ | Heal % (T), mean (chronic leg ulcers [3]; sum of total area reduction divided by sum of total area, 11 patients): 78* % | Ulcers with favourable healing (58-59%) (chronic leg ulcers [3]; treated ulcers): two | Ulcers with excellent healing (84-99%) (chronic leg ulcers [3]; treated ulcers, in four patients): four | Ulcers with complete healing (100% area reduction) (chronic leg ulcers [3]; treated ulcers, in three patients): 5/15 | Ulcers with minimal improvement (25-30%) or relapse (chronic leg ulcers [3]; treated ulcers, three patients): four | Healing of the four contiguous non-treated ulcers (chronic leg ulcers [3]; two patients): three healed completely and one excellent | Circ (NT) ratio, mean (chronic leg ulcers [4]; non-treated ulcers): 0.9/ND ratio | Circ (NT) ratio, median (chronic leg ulcers [4]; non-treated ulcers): 0.9/ND ratio | Circ (T) ratio, mean (chronic leg ulcers [4]; treated ulcers): 1.12 ratio | Circ (T) ratio, median (chronic leg ulcers [4]; treated ulcers): 1.23 ratio | Circ (T) ratio: relative change in local microcirculation (chronic leg ulcers [4]; treated ulcers, before treatment vs one week later, one line per patient): 1.29 ratio and 1.23 ratio and 1.28 ratio and 0.77 ratio and 0.72 ratio and 0.97 ratio and 1.48 ratio
